Data reported in patent US20240226103A1, “SOLID DISPERSION OF A HER2 INHIBITOR” (Boehringer Ingelheim International GmbH, priority 2022, published 2024).
Converted amounts (≈) assume the structure as drawn. Where two headings read alike, the source gives them in different places.

Legend:
Type in all cases: physicochemical
[1] = Equilibrium solubility in aqueous media at different pH and in biorelevant media (UPLC-UV-MS); settings: for Equilibrium solubility Conc.: 24 h; for solubility thermodynamic at 24 h: thermodynamic from solid, read-out: Equilibrium solubility Conc.
Procedure: Discard the first ˜3.5 mL then collect 3 aliquots (˜0.5 mL) to be analyzed. • Quantification of the 3 aliquots by UPLC-UV-MS with the appropriate calibration curve.
• Instrument: Waters Acquity H-Class with PDA and QDa detectors • Column: Waters Acquity BEH C18, 1.7 μm, 2.1×50 mm • Flow rate: 0.65 mL/min • UV detection: 254 nm or 410 nm • Column temperature: 40° C.±2° C. • Sample temperature: 23° C.±2° C. • Injection volumes: 0.4 μL (for concentration between 1-500 μg/mL) and 9 μL (for concentration between 0.050-1 μg/mL) • Mobile phase: gradient with solutions A and B prepared as follows
• Ionisation mode: ESI+/ESI− • Source temperature: 600° C. • Capillary voltage: 0.8 kV • Cone voltage: +20V/−20V
Two standard calibration curves (chromatographic UV peak area vs. concentration) are established in DMSO at 254 nm or 410 nm for each solid form and for the solid dispersion, one between 0.025 or 0.050 μg/mL and 1 μg/mL (injection volume=9 μL) and another between 1 μg/mL and 500 μg/mL (injection volume=0.4 μL). The calibration curves are linear in the whole investigated concentration range.

[2] = pH-dependent solubility of compound (1) in aqueous media
From the text: Consequently, the in vivo absorption of compound (1) is affected by gastric pH. […] Such a decrease may occur to different extents in different patients due to inter-patient stomach pH variability.

[3] = Organic solubility screening in DCM:methanol solvent blends (visual observation)
Procedure: Solubility is determined by visual observation.

[4] = Acetate Buffer pH 4, room temperature
[5] = Phosphate Buffer pH 7.4, room temperature

C=CC(=O)NC1CCN(c2ncc3ncnc(Nc4ccc(Oc5ccc6c(c5)ncn6C)c(C)c4)c3n2)CC1 [compound (1) Form IV, N-{1-[8-({3-methyl-4-[(1-methyl-1H-1,3-benzodiazol-5-yl)oxy]phenyl}amino)-[1,3]diazino[5,4-d]pyrimidin-2-yl]piperidin-4-yl}prop-2-enamide]
Equilibrium solubility Conc. [1, 4]: 3 µg/mL | Equilibrium solubility Conc. ([1]; Acetate Buffer pH 5, room temperature): 0.075 µg/mL | Equilibrium solubility Conc. ([1]; FaSSIF pH 6.5, 37° C.): 0.726 µg/mL | Equilibrium solubility Conc. ([1]; FeSSIF pH 5.0, 37° C.): 44 µg/mL | Equilibrium solubility Conc. ([1]; HCl 0.01N pH 2, room temperature): 761 µg/mL | Equilibrium solubility Conc. ([1]; Phosphate Buffer pH 6.8, room temperature): 0.027 µg/mL | Equilibrium solubility Conc. [1, 5]: 0.018 µg/mL

C=CC(=O)NC1CCN(c2ncc3ncnc(Nc4ccc(Oc5ccc6c(c5)ncn6C)c(C)c4)c3n2)CC1 [compound (1), N-{1-[8-({3-methyl-4-[(1-methyl-1H-1,3-benzodiazol-5-yl)oxy]phenyl}amino)-[1,3]diazino[5,4-d]pyrimidin-2-yl]piperidin-4-yl}prop-2-enamide]
decrease in solubility between pH 1.2 and pH 6.8 [2]: about 10^5 fold | Solubility ([3]; DCM:methanol 70:30): >16.8 wt % | Solubility ([3]; DCM:methanol 80:20): >18.7 wt % | Solubility ([3]; DCM:methanol 90:10): >17.1 wt %

C=CC(=O)NC1CCN(c2ncc3ncnc(Nc4ccc(Oc5ccc6c(c5)ncn6C)c(C)c4)c3n2)CC1 [compound (1) Form III, N-{1-[8-({3-methyl-4-[(1-methyl-1H-1,3-benzodiazol-5-yl)oxy]phenyl}amino)-[1,3]diazino[5,4-d]pyrimidin-2-yl]piperidin-4-yl}prop-2-enamide]
Equilibrium solubility Conc. [1, 4]: 6.6 µg/mL | solubility thermodynamic at 24 h ([1]; FaSSIF, 37 °C, pH 6.5, fassif, FaSSIF pH 6.5, 37° C.): 0.803 µg/mL (≈ 1.5 µM) | solubility thermodynamic at 24 h ([1]; FeSSIF, 37 °C, pH 5, fessif, FeSSIF pH 5.0, 37° C.): 49 µg/mL (≈ 91.5 µM) | solubility thermodynamic at 24 h ([1]; HCl 0.01N, pH 2, simulated gastric fluid, HCl 0.01N pH 2, room temperature): 1320 µg/mL (≈ 2470 µM) | Equilibrium solubility Conc. [1, 5]: 0.056 µg/mL | solubility thermodynamic at 24 h ([1]; acetate buffer, pH 5, aqueous buffer, Acetate Buffer pH 5, room temperature): 0.126 µg/mL (≈ 0.235 µM) | solubility thermodynamic at 24 h ([1]; phosphate buffer, pH 6.8, aqueous buffer, Phosphate Buffer pH 6.8, room temperature): 0.025 µg/mL (≈ 0.0467 µM)
